This note sets out measurements from US20090055964A1, “MPO1 GENE AND PROTEIN AND METHODS OF USE” (priority 2006, published 2009).

The target in data set [1] is T1, recombinant TRX-NtMPO1 fusion protein (Nicotiana tabacum, UniProt A0A1S4BDC4).
T1 sequence (A0A1S4BDC4 1-790): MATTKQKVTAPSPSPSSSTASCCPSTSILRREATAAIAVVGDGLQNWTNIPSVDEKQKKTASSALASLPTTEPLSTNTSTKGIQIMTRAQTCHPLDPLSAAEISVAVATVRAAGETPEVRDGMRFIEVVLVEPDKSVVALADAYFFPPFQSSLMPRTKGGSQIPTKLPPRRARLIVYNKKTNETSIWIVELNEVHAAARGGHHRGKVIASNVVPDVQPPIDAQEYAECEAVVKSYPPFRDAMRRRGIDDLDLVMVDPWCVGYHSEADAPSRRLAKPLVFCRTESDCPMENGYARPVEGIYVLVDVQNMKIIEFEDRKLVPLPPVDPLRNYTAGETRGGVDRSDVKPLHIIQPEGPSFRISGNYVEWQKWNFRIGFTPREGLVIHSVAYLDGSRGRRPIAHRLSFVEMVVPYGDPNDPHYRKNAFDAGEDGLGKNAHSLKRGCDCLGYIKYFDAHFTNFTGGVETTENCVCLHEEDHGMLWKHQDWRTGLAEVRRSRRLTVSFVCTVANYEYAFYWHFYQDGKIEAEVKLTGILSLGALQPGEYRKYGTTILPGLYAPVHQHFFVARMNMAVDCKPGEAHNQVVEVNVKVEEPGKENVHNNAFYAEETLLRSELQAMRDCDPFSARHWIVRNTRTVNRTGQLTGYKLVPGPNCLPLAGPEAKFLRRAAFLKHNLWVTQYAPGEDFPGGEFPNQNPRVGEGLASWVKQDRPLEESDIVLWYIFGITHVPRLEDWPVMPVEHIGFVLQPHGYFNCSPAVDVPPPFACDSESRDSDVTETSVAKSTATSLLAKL
The data set is described as follows: spectrophotometric amine oxidase assay of recombinant TRX-NtMPO1 with diamine substrates. The conditions noted are these: for Vmax: substrate kinetics, Lineweaver-Burk plots, three independent extracts. The procedure:
This modified fragment was cloned into pCR2.1 (Invitrogen) to yield pJGJ367. […] Finally, a 2.6 Kb NcoI-XhoI (partial) fragment was cut from pJGJ369 and ligated into pET32a+ similarly cut, to yield pJGJ389. Plasmid pJGJ389 was transformed into the Rosetta E. coli strain (Novagen, Madison, Wis.) for expression of a recombinant […] protein. Mid-log phase Rosetta/pJGJ389 cells were cultured overnight in LB media supplemented with 100 ug/ml Ampicillin, 30 ug/ml Chloramphenicol, and 0.2 mM isopropyl-β-D-thiogalactoside at 18° C. at 250 rpm. The cells were pelleted, lysed, and the native protein extract incubated with Ni-NTA superflow resin, and the TRX-MPO1 was eluted as per manufacture's instructions (Qiagen, Valencia, Calif.). The TRX-MPO1 enriched extract was mixed 1:1 (v:v) with 100% glycerol and stored at −20° C.

In another data set the test system is NCCCN. Put plainly: purified protein, by the assay type. Particulars: other: substrate kinetics, Lineweaver-Burk plots, three independent extracts; 18.0 °C.

Protocol for NCCCN: Mid-log phase Rosetta/pJGJ389 cells were cultured overnight in LB media supplemented with 100 ug/ml Ampicillin, 30 ug/ml Chloramphenicol, and 0.2 mM isopropyl-β-D-thiogalactoside at 18° C. at 250 rpm. The cells were pelleted, lysed, and the native protein extract incubated with Ni-NTA superflow resin, and the TRX-MPO1 was eluted as per manufacture's instructions (Qiagen, Valencia, Calif.). The TRX-MPO1 enriched extract was mixed 1:1 (v:v) with 100% glycerol and stored at −20° C. […] Background-corrected diamine oxidase rates were graphed as Lineweaver-Burk plots in order to estimate the Vmax and Km of the recombinant TRX -NtMPO1 fusion protein isolated from three independent extracts.

As for `NCCCN` [1,3-diamine propane, 1,3-diaminepropane], in data set [1] (qualitative, different kinetics for each substrate), the “oxidative deamination as substrate by recombinant TRX-MPO1” value is reported as “oxidatively deaminated”.

A word on the Vmax: it is the top rate of the reaction or transport when substrate is in excess. Turning to `CNCCCCN` [N-methylputrescine, N-methyl-1,4 diaminebutane], the Vmax in data set [1] was 0.0017 ± 0.0001 mM/min.

Turning to `NCCCCCN` [cadaverine], the maximum rate (Vmax) in data set [1] was found to be 0.0003 ± 0.00004 mM/min.

Consider `NCCCCN` [putrescine], for which the Vmax in data set [1] is 0.0007 ± 0.0001 mM/min.

By Km is commonly meant the concentration of substrate that gives half-maximal velocity. Consider “recombinant TRX-NtMPO1 fusion protein (Nicotiana tabacum)”, for which, in the data set on NCCCN, the Km came out at 350 ± 30 µM, the Vmax is 0.7 µM/min and the Vmax/Km was 0.00193 min⁻¹.
